Laboratory results: patent US20240408219A1, “BICYCLIC PEPTIDE LIGAND DRUG CONJUGATES” (priority 2021, published 2024)
“And” between values parts separate entries of the source, which are not always exact repeats. Equal entries are not always repeated. Numbered stars: 1 amine (or outer) side, 2 acyl side, 3 side chain; on linkers, the order of the positions; unused ones are H or OH. Bridge positions count the residues as written; N and C are the ends. Square brackets hold non-standard residues; d marks the D form. Ends that are not written are not given here. 1Nal = N[C@@H](Cc1cccc2ccccc12)C(=O)O; TBMB = c1c(C[*:1])cc(C[*:3])cc1C[*:2]; Tle = CC(C)(C)[C@H](N)C(=O)O; βAla = NCCC(=O)O; Sar = CNCC(=O)O

System: HT1080 xenograft
Assay: In vivo efficacy test in HT1080 xenograft in BALB/c nude mice (Example 1)
Method: [table] • Species: Mus Musculus • Strain: […] Shanghai LC Laboratory Animal Co., LTD. […] The tumor cells were routinely subcultured twice weekly by trypsin-EDTA treatment. The cells growing in an exponential growth phase were harvested and counted for tumor inoculation. […] The test article administration and the animal numbers in each group were shown in the experimental design table. […] All the procedures related to animal handling, care and the treatment in the study were performed according to the guidelines approved by the Institutional Animal Care and Use Committee (IACUC) of WuXi AppTec, following the guidance of the Association for Assessment and Accreditation of Laboratory Animal Care (AAALAC). At the time of routine monitoring, the animals were daily checked for any effects of tumor growth and treatments on normal behavior such as mobility, food and water consumption (by looking only), body weight gain/loss, eye/hair matting and any other abnormal effect as stated in the protocol. Death and observed clinical signs were recorded on the basis of the numbers of animals within each subset. The major endpoint was to see if the tumor growth could be delayed or mice could be cured. […] The tumor size was then used for calculations of T/C value. The T/C value (in percent) is an indication of antitumor effectiveness; T and C are the mean volumes of the treated and control groups, respectively, on a given day. TGI was calculated for each group using the formula: […] Ti is the average tumor volume of a treatment group on a given day, TO is the average tumor volume of the treatment group on the day of treatment start, Vi is the average tumor volume of the vehicle control group on the same day with Ti, and VO is the average tumor volume of the vehicle group on the day of treatment start. Summary statistics, including mean and the standard error of the mean (SEM), are provided for the tumor volume of each group at each time point. Statistical analysis of difference in tumor volume among the groups was conducted on the data obtained at the best therapeutic time point after the final dose. A one-way ANOVA was performed to compare tumor volume among groups, and when a significant F-statistics (a ratio of treatment variance to the error variance) was obtained, comparisons between groups were carried out with Games-Howell test. All data were analyzed using Prism.

BT17BDC70: Reference bicyclic peptide drug conjugate (Tet-MMAE); BICY comprises βAla-Sar10-A-(SEQ ID NO: 1) ([βAla][Sar][Sar][Sar][Sar][Sar][Sar][Sar][Sar][Sar][Sar]AC[dA]NE[1Nal][dA]CEDFYD[Tle]C-NH2; linker 13-19-26 via TBMB; also: Tet-MMAE conjugate)
Antitumor activity (in words) (0.1 mg/kg biw): did not produce significant antitumor activity
Antitumor activity (in words) (0.3 mg/kg biw): did not produce significant antitumor activity
Tumor volume (mean ± SEM) (0.1 mpk iv biw, day 0 after the start of treatment): 170 ± 21 mm^3
Tumor volume (mean ± SEM) (0.1 mpk iv biw, day 2): 400 ± 45 mm^3
Tumor volume (mean ± SEM) (0.1 mpk iv biw, day 4): 557 ± 23 mm^3
Tumor volume (mean ± SEM) (0.1 mpk iv biw, day 7): 1017 ± 180 mm^3
Tumor volume (mean ± SEM) (0.1 mpk iv biw, day 9): 1102 ± 295 mm^3
Tumor volume (mean ± SEM) (0.1 mpk iv biw, day 11): 1133 ± 203 mm^3
T/C (0.1 mpk iv biw, day 14): 129.9%
TGI (0.1 mpk iv biw, day 14): −36.3%
Tumor volume (mean ± SEM) (0.1 mpk iv biw, day 14): 1315 mm^3 and 1315 ± 287 mm^3
Tumor volume (mean ± SEM) (0.3 mpk iv biw, day 0 after the start of treatment): 170 ± 27 mm^3
Tumor volume (mean ± SEM) (0.3 mpk iv biw, day 2): 371 ± 63 mm^3
Tumor volume (mean ± SEM) (0.3 mpk iv biw, day 4): 501 ± 91 mm^3
Tumor volume (mean ± SEM) (0.3 mpk iv biw, day 7): 703 ± 69 mm^3
Tumor volume (mean ± SEM) (0.3 mpk iv biw, day 9): 695 ± 60 mm^3
Tumor volume (mean ± SEM) (0.3 mpk iv biw, day 11): 745 ± 60 mm^3
T/C (0.3 mpk iv biw, day 14): 89.2%
TGI (0.3 mpk iv biw, day 14): 12.8%
Tumor volume (mean ± SEM) (0.3 mpk iv biw, day 14): 903 mm^3 and 903 ± 67 mm^3
Antitumor activity (in words) (over all doses tested): did not produce significant antitumor activity
